Reference: PubChem BioAssay (NCI)
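Assay format: 96-well plates, 48-hour exposure. Abbreviation: GI50, concentration required for 50% inhibition of growth. At the TGI there is no net growth.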

Experiments:
Assay in all cases: inhibition of tumour cell growth, NCI panel, 48 h
OVCAR-5 ovarian = tested on: OVCAR-5 ovarian
OVCAR-8 ovarian = tested on: OVCAR-8 ovarian
HCC-2998 colon = tested on: HCC-2998 colon
ACHN renal = tested on: ACHN renal
SR leukemia = tested on: SR leukemia
786-0 renal = tested on: 786-0 renal
IGROV1 ovarian = tested on: IGROV1 ovarian
LOX IMVI melanoma = tested on: LOX IMVI melanoma
SK-OV-3 ovarian = tested on: SK-OV-3 ovarian
A549 NSCLC = tested on: A549 NSCLC

Row | SMILES | TGI (OVCAR-5 ovarian) [µM] | TGI (OVCAR-8 ovarian) [µM] | TGI (HCC-2998 colon) [µM] | TGI (ACHN renal) [µM] | TGI (SR leukemia) [µM] | TGI (786-0 renal) [µM] | TGI (IGROV1 ovarian) [µM] | TGI (LOX IMVI melanoma) [µM] | TGI (SK-OV-3 ovarian) [µM] | TGI (A549 NSCLC) [µM] | GI50 (OVCAR-5 ovarian) [µM] | GI50 (OVCAR-8 ovarian) [µM] | GI50 (HCC-2998 colon) [µM] | GI50 (ACHN renal) [µM] | GI50 (SR leukemia) [µM] | GI50 (786-0 renal) [µM] | GI50 (IGROV1 ovarian) [µM] | GI50 (LOX IMVI melanoma) [µM] | GI50 (SK-OV-3 ovarian) [µM] | GI50 (A549 NSCLC) [µM]
1 | C/C(=N/O)C1CC=C(S(=O)(=O)c2ccccc2)C1 (centres undefined) | > 100 | > 100 | > 100 | > 100 | > 100 | > 100 | > 100 | > 100 | > 100 | > 100 |  |  |  |  |  |  |  |  |  | 
2 | OC(c1ccccc1)(c1ccccc1)c1ccccn1 | > 100 | > 100 | > 100 | > 100 | > 100 | > 100 | > 100 | > 100 | > 100 | > 100 |  |  |  |  |  |  |  |  |  | 
3 | CC/C(=N\Nc1nc2ccccc2n1C)c1ccccn1 | 15.6 | 14 | 7.23 | 6.28 | 12.4 | 1.52 | 7.76 | 5.32 | 1.58 | 11.4 | 0.156 | 0.0929 | 0.314 | < 0.016 | 0.0428 | 0.211 | 0.0294 | 0.118 | 0.064 | 0.103
4 | O=C(CCc1nnc2s/c(=C\c3ccccc3)c(=O)n12)Nc1cc(Cl)ccc1Cl | > 100 | > 100 | > 100 | > 100 | > 100 | > 100 | > 100 | > 100 | > 100 | > 100 |  |  |  |  |  |  |  |  |  | 
5 | COc1c(OC(C)=O)cc2c(OC(C)=O)c1CC(C)CC(OC)C(O)C(C)/C=C(\C)C(OC(N)=O)C(OC)/C=C\C=C(/C)C(=O)N2 (centres undefined) | > 100 | > 100 | > 100 | > 100 | > 72.6 | > 100 | > 100 | > 100 | > 100 | > 100 |  |  |  |  |  |  |  |  |  | 
6 | CC(=O)NNc1nc(C)c(C(=O)NNC(=O)C(=O)Nc2ccc(C)c(C)c2)s1 | > 100 | > 100 | > 100 | > 100 | > 100 | > 100 | > 100 | > 100 | > 100 | > 100 |  |  |  |  |  |  |  |  |  | 
7 | COc1cc(CNC(=O)/C=C/C=C/c2ccc3c(c2)OCO3)ccc1OCc1cn(-c2ccc(Cl)c(Cl)c2)nn1 | 3.99 | 8.15 | 4.74 | 1.77 | 19.1 | 4.28 | 3.75 | 3.96 | 6.57 | 4.18 | 1.77 | 2.35 | 2.1 | 0.504 | 2.8 | 2.03 | 1.52 | 1.78 | 2.54 | 0.999
8 | Nc1ccc2c(c1)C(=O)c1ccc(F)cc1-2 | > 100 | > 100 | > 100 | > 100 | > 100 | > 100 | > 100 | > 100 | > 100 | > 100 |  |  |  |  |  |  |  |  |  | 
9 | O=C1Cc2cc(CCn3ccnc3)c(Cl)cc2N1 | > 100 | > 100 | > 100 | > 100 | > 100 | > 100 | > 100 | > 100 | > 100 | > 100 | 44.8 | 24.1 | 32.2 | 20.3 | 9.24 | > 100 | > 100 | 85.3 | 18.1 | 7.63
10 | CCN1CCN(CCOc2ccc(CNc3ccc4nc(CCC5CCCCC5)[nH]c4c3)cc2)CC1 | 7.18 | 7.04 | 5.07 | 7.96 | 0.941 | 3.39 | 11 | 3.15 | 5.16 | 8.13 | 2.33 | 2.45 | 2.22 | 2.79 | 0.303 | 1.57 | 2.83 | 1.71 | 2.28 | 2.61
11 | C=C1CC[C@@H]2C(C)(C)[C@@H](O)CC[C@@]2(C)[C@@H]1COc1ccc2ccc(=O)oc2c1 | 39.9 | 78.7 | 31.1 | 29.2 | 83.9 | 30.6 | 31.9 | 27.7 |  | 66.8 | 18.7 |  | 15.2 | 14.3 | 19.4 | 14.8 | 15.1 | 13.8 |  | 8.46
12 | COc1ccc(/C=C2\N=C(c3ccccc3)OC2=O)c(OCc2ccccc2)c1 | > 100 | 72 | > 100 | > 100 | > 100 | 34.8 | 64.4 | > 100 |  | > 100 |  |  |  |  |  |  |  |  |  | 
13 | Cc1cc(C)nc(NS(=O)(=O)c2ccc(Nc3c4ccccc4nc4c(C(=O)NCCN(C)C)ccc(Cl)c34)cc2)n1 | 14.9 | 2.69 | 26.7 | 8.97 | 5.46 | 14.7 | 11.7 | 2.25 |  | 4.19 |  |  |  |  |  |  |  |  |  | 
14 | COc1cc2cc3c4c(cc(OC)c(OC)c4c2cc1OC)CCN3C(=O)CCCC(=O)O | > 100 |  | > 100 | > 100 | > 100 | > 100 | > 100 | > 100 | > 100 | > 100 |  |  |  |  |  |  |  |  |  | 
